Assay results taken from patent US20240228920A1, “Distilled Spirit with modified Alcohol Levels with or without a Functional Ingredient” (priority 2023, published 2024).

Legend:
MAO B = biological target: T1, MAO B (Homo sapiens, UniProt P27338); assay: MAO B inhibitory activity assay; type: biochemical; conditions: terpene at 0.5% (v/v) in Don Julio Añejo (40% ABV) minus in 40% ethanol
T1 sequence (P27338 1-520): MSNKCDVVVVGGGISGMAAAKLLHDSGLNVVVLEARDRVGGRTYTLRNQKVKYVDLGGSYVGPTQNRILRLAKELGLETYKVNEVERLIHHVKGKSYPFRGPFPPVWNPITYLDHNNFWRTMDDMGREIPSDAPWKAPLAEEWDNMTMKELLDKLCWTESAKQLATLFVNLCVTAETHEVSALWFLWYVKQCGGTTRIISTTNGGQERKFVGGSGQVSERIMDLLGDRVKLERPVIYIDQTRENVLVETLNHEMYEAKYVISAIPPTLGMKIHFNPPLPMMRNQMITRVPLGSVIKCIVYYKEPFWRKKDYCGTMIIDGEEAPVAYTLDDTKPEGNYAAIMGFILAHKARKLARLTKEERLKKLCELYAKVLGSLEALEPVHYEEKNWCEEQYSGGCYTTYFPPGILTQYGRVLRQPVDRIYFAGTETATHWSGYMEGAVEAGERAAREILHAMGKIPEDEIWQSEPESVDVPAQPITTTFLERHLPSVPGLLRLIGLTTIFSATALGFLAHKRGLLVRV
Procedure: (§1) U.S. […] The contents of this document are incorporated herein by reference, but briefly, methods that include reverse osmosis and low-pressure evaporation to provide retentates with significant concentrations of these inhibitors are described. In addition, details of assay methods for monoamine oxidase activity (and therefore inhibition thereof) and for ethanol content are provided. The effect of compounds on MAOI activity in tequila was evaluated in the experiment from Table 3.

MAO A = biological target: T2, MAO A (Homo sapiens, UniProt P21397); assay: MAO A inhibitory activity assay; type: biochemical; conditions: terpene at 0.5% (v/v) in Don Julio Añejo (40% ABV) minus in 40% ethanol
T2 sequence (P21397 1-527): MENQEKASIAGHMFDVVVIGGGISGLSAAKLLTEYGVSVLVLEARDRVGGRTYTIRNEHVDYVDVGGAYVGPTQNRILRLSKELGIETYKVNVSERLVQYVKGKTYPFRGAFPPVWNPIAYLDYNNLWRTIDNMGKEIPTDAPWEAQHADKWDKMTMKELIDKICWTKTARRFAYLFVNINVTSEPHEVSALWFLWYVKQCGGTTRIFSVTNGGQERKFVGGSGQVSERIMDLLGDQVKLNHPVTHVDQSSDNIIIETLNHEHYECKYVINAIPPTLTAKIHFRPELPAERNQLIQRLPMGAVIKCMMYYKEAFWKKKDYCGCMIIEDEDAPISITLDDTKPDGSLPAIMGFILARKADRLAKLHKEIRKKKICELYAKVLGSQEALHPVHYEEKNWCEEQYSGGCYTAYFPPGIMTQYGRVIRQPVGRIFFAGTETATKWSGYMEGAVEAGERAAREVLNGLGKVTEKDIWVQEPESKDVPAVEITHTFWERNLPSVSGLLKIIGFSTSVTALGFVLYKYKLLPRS
Procedure: as §1

Compound | Δ % Inhibition MAO B (DJA + terpene) − (ETOH + terpene) (MAO B) | Δ % Inhibition MAO A (DJA + terpene) − (ETOH + terpene) (MAO A)
C=C(C)[C@@H]1CCC2=CCC[C@@H](C)[C@]2(C)C1 [valencene] | 20% | 9%
Geramol | 9% | 4%
CC(C)=CCCC(C)=CC=O [citral] | 2% | 0%
CC1=CCC(=C(C)C)CC1 [terpinolene] | 9% | 1%
C=CC(=C)CCC=C(C)C [β-myrcene] | 11% | 5%
C=CCc1ccc(O)c(OC)c1 [eugenol] | 8% | 1%
